Data set [1] concerns the target D3R (Homo sapiens (Human), UniProt P35462). Briefly: D3 Mitogenesis Functional Assay (3H-thymidine uptake, CHOp-D3 cells). It is filed as cell-based. An outline of the steps: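 CHO cells expressing human D3, serum-starved 24 h, then given compound (agonist mode) or antagonist plus 30 nM quinpirole final for 16 h at 37 °C. A 2 h [3H]thymidine pulse was used for uptake.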

Data set [2] relates to Long Evans rats. Briefly: Cocaine self-administration under PR schedule of reinforcement. It is filed as in vivo, rat. The conditions noted are these: 3.75, 7.5 or 15 mg/kg intraperitoneally 10 minutes prior to session; compared to vehicle, ps<0.05; cocaine 0.375, 0.75, […]. The protocol: These studies were performed using Long Evans rats using standard protocols (Quinlan M. G. et al. Psychopharmacol. 2004, 175, 53-59; Ranaldi, R. et al. Behav. Pharmacol. 2011, 22, 347-353). Cocaine self-administration sessions were conducted in sixteen operant chambers; eight measuring 30×22×27 cm (l×w×h) and the other eight measuring 26×26×30 cm (l×w×h). Each chamber was situated inside a sound-attenuating box and was equipped with two retractable levers, a white light above each lever, and a tether. Polyethylene tubing, covered by the tether, connected the animal, through a fluid swivel, to a syringe in a syringe pump (Razel, 3.33 rpm). Cocaine was dissolved in 0.9% saline to achieve doses of 0.375, 0.75 and 1.5 mg/kg/injection. […] Each animal was tested with one dose of the D3 antagonist, randomly determined, at as many of the three cocaine doses as possible. After a particular test the animal's cocaine dose was changed to another one (randomly determined) and its baseline BP on the new dose was established. BP during the test session was expressed as the percentage of the average BP obtained during the last three baseline sessions. Percentage of baseline BP and final ratio (i.e. the number of lever presses required for the BP infusion) were analyzed using separate two-way analyses of variance (ANOVAs) with dose of 113 and dose of cocaine as between-groups factors. […]

The subject of data set [3] is Long Evans rats. Briefly: Spontaneous locomotor activity. It is filed as in vivo, rat. Conditions: 10 minutes prior to placement in chambers. The protocol: These studies were performed using Long Evans rats using standard protocols. Locomotor activity chambers measuring 43×43×30 cm (l×w×h) were used for the locomotor activity experiments. Each chamber was equipped with eight photo-emitters positioned along the length of the chamber 6 cm above the floor, each paired directly opposite a photocell. Locomotor activity counts were registered when adjacent beams were broken consecutively. Before receiving any drug, the animals (n=96) were placed in locomotor activity chambers for habituation, for 2 hours per day for 3 consecutive days. Based on the locomotor activity score obtained during the third habituation session, animals were assigned into one of […] treatment groups. […] For the 113 alone experiments, each of the four groups received one of 4 doses of 113 (0, 3.75, 7.5 or 15 mg/kg) 10 minutes prior to placement in the activity chambers. For the 113 cocaine interaction experiments, each of 4 groups were injected with one of the 4 doses of the compound (0, 3.75, 7.5 or 15 mg/kg) 10 minutes before receiving 10 mg/kg of cocaine as the second injection. […] The locomotor counts in the 113 alone and 113/cocaine experiments were analyzed using two separate mixed-design ANOVAs with 113 dose (between-groups) and 5-min bins (repeated measures) as factors. […]

Sequence of D3R (P35462 whole entry): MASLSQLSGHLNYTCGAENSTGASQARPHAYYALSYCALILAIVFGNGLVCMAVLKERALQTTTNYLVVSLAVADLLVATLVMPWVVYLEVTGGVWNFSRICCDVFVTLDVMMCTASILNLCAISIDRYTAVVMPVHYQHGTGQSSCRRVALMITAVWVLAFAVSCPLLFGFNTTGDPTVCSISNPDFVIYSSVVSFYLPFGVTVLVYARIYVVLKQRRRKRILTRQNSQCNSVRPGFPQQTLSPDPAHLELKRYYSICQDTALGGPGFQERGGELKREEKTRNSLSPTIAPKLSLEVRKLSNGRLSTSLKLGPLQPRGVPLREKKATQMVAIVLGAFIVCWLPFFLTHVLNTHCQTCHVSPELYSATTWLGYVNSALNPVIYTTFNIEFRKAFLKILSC

As for `CC(C)(C)c1nc(N2CCN(CCCCNC(=O)c3cn4ccccc4n3)CC2)cc(C(F)(F)F)n1` [Compound 113, N-(4-(4-(2-(tert-Butyl)-6-(trifluoromethyl)pyrimidin-4-yl)piperazin-1-yl)butyl)imidazo[1,2-a]pyridine-2-carboxamide], the maximum response (Emax) (usually the greatest response seen or fitted, relative to the assay's reference) at 10 µM in data set [1] (at 10 μM, % maximum stimulation vs quinpirole (100%), read-out: D3 Agonist Emax) was determined as 0%. Further, the concentration for half-maximal inhibition (IC50) (commonly the concentration at which inhibition is half-maximal) in data set [1] (inhibition of quinpirole (30 nM final) stimulation of mitogenesis, read-out: D3 Antagonist IC50) is 157 ± 34 nM. Moreover, in data set [2], the “percentage of baseline BPs for cocaine under PR schedule” value is “significant reductions in the percentage of baseline BPs”. Further, the spontaneous locomotor activity result in data set [3] (3.75 mg dose) is “had no effect on spontaneous locomotor activity”; in data set [3] (7.5 and 15 mg doses), “appeared to reduce locomotor activity in the first 5 minutes of testing but did not affect activity after that”.

For the origin of these results see patent publication US9598387B2 (Southern Research Institute, priority 2012, dated 2017).
